# Laboratory results: patent publication US20220062166A1, “Self-Gelling Solutions for Administration of Therapeutics to the Inner Ear” (Spiral Therapeutics, Inc., priority 2019, published 2022)
# Biological target: T1, caspase 9 (Homo sapiens, UniProt P55211)
# T1 sequence (P55211 1-416): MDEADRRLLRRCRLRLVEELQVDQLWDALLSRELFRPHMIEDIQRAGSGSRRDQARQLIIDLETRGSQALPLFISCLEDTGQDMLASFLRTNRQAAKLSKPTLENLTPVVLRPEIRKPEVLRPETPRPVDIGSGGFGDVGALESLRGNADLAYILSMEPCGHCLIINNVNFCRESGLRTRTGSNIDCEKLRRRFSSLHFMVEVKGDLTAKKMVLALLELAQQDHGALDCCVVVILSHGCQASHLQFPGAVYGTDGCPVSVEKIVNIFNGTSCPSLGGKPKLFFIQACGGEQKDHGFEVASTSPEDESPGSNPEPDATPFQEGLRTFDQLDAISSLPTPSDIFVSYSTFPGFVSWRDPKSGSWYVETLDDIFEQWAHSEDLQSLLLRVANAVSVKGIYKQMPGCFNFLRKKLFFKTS
# Experiment: Caspase 9 activation assay with recombinant proteins
# Assay type: biochemical
# Settings: in %
# Protocol: The specificity of LPT99 was tested in vitro on Apaf1, caspase 3, and caspase 9 (proteins from the apoptotic cascade), and a broad panel of potential pharmacological targets.
# LPT99 inhibited the formation of the apoptosome complex composed by recombinant Apaf1, cyt c, deoxyadenosine triphosphate (dATP), and caspase 9. This activity was measured as inhibition of caspase 3 activation. […] To evaluate the specificity of the inhibition, an assay of caspase 3 and 9 activation was set up with recombinant proteins. The inhibitions of caspase 3 and 9 were 7.6±14.7 and 5.3±3.5, respectively, for LPT99.
structure (smiles),measurement,value
"COc1ccc2[nH]cc(CCNC(=O)CC3C(=O)N(CCc4ccc(Cl)cc4Cl)CC(=O)N3CCc3cccs3)c2c1 (stereo not shown) [LPT99, 2-(4-(2,4-dichlorophenethyl)-3,6-dioxo-1-(2-(thiophen-2-yl)ethyl)piperazin-2-yl)-N-(2-(5-methoxy-1H-indol-3-yl)ethyl)acetamide]",inhibition of caspase 9,5.3±3.5
